Results reported in US20200015478A1, “ANTIBACTERIAL COMPOSITION CONTAINING CARYOLAN-1-OL” (INDUSTRY-ACADEMIC COOPERATION FOUNDATION GYEONGSANG …, priority 2016, published 2020).

System: Botrytis cinerea
Assay: Mycelium growth rate of Botrytis cinerea with synthesized caryolan-1-ol vapour from paper disc
Type: cell-based
Conditions: Botrytis cinerea on PDA, 10 μl acetone solution on paper disc, sealed, 27° C., 4 days, FIG. 6
Method: Next, in order to verify the antibacterial activity of the synthesized caryolan-1-ol, PDA (Potato starch 4 g, dextrose 20 g, Agar 20 g with respect to 1 liter) medium was prepared so as to allow 60 mm Petri dishes to have 12 ml space. Botrytis cinerea was inoculated with a radius of 2 mm Based on the concentration at which caryolan-1-ol was completely gaseous, caryolan-1-ol was dissolved in acetone, and then the solution was treated to the paper disc placed on a lid at 10 μl each. After sealing, they were cultured at 27° C., and the growth rate of mycelium was measured for 4 days. The growth rate for the acetone treatment group was determined.

## CC12CCCC(O)(C1)C1CC(C)(C)C1CC2 (stereo not shown) [caryolan-1-ol]
  growth rate of mycelium relative to acetone treatment group: significantly inhibited the growth
